From ChEMBL document CHEMBL3734692, “Design and synthesis of 2-oxindole based multi-targeted inhibitors of PDK1/Akt signaling pathway for the treatment of glioblastoma multiforme” (Eur J Med Chem, 2015)
Activity calls are given as the source filed them. The rule behind the calls is not given here.

What was measured:
ANGM-CSS [1] = assay: Antiproliferative activity against human GSC derived from ANGM-CSS cells after 7 days by MTS assay; assay type: functional, cell-based
[2] = target: T1, Cyclin-dependent kinase 5/CDK5 activator 1 (Homo sapiens) (UniProt Q00535+Q15078); assay: Inhibition of CDK5/p35 (unknown origin) at 1 uM by selectscreen kinase profiling assay in presence of ATP; assay type: protein-complex assay
T1 sequence (Q00535 whole entry): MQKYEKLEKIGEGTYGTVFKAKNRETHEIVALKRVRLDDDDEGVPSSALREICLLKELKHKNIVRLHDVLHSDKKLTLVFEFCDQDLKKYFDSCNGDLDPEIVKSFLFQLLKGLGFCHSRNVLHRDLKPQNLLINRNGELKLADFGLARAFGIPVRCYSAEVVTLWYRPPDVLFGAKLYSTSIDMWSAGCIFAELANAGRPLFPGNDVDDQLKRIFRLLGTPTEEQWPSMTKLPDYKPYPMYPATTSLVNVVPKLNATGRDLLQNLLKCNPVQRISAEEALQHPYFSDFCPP
T1 sequence (Q15078 99-307 partner limits assumed): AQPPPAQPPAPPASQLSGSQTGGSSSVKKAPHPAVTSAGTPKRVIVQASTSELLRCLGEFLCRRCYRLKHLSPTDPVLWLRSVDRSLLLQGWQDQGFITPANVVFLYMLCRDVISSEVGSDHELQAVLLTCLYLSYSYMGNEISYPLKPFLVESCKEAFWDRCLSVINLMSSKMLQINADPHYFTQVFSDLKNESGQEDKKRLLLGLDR

ANGM-CSS [3] = assay: Induction of human GSC differentiation derived from ANGM-CSS cells assessed as up regulation of olig mRNA expression at 1 uM after 7 days by RT-PCR analysis; assay type: functional, cell-based
[4] = target: Serine/threonine-protein kinase B-raf (Homo sapiens) (UniProt P15056); assay: Inhibition of BRAF (unknown origin) at 1 uM by selectscreen kinase profiling assay in presence of ATP
Sequence of Serine/threonine-protein kinase B-raf (Homo sapiens) (P15056 whole entry): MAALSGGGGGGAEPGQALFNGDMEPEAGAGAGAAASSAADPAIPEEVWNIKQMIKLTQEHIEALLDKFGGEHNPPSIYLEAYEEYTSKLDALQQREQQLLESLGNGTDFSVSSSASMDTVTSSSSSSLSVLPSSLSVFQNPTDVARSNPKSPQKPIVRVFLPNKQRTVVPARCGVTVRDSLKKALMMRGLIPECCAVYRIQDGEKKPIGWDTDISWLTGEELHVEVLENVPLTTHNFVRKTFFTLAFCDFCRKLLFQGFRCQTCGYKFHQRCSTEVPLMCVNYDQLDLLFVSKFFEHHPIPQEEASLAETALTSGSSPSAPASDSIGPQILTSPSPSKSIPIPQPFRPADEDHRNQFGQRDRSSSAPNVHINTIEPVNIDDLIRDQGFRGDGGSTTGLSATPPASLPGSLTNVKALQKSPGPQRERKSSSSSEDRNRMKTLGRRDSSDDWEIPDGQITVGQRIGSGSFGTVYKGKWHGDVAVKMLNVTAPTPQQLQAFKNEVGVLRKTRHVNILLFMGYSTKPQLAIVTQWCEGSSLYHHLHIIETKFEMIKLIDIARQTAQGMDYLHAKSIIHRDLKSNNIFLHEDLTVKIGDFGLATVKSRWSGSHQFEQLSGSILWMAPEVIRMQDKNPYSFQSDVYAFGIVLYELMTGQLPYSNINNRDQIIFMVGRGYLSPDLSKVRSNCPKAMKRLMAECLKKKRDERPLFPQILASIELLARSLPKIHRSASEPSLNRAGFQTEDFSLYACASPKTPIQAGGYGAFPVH

[5] = target: Glycogen synthase kinase-3 beta (Homo sapiens, UniProt P49841); assay: Inhibition of GSK3beta (unknown origin) in presence of 10 uM ATP incubated for 1 hr by Z'Lyte assay
Sequence of Glycogen synthase kinase-3 beta (P49841 whole entry): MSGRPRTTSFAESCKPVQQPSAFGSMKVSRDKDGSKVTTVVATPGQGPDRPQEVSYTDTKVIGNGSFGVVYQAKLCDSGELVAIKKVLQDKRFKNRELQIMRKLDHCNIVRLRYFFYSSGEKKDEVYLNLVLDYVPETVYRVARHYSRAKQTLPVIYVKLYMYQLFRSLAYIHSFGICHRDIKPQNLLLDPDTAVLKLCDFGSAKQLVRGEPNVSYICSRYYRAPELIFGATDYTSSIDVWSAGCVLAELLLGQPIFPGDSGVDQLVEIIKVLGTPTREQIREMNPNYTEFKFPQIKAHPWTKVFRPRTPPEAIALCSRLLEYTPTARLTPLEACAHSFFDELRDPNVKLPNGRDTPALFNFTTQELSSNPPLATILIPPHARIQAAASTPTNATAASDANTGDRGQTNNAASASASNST

[6] = Induction of apoptosis in human ANGM-CSS cells assessed as live cells at 1 uM after 7 days by annexin V-FITC/7-AAD dual staining based cell analysis (reference value: 92.21%); assay type: functional
[7] = Antiproliferative activity against human U118MG cells assessed as inhibition of cell growth after 72 hrs by WST1 assay; assay type: functional; conditions: U-118-MG
[8] = Induction of apoptosis in human ANGM-CSS cells assessed as late apoptotic cells at 1 uM after 7 days by annexin V-FITC/7-AAD dual staining based cell analysis (reference value: 3.39%); assay type: functional
[9] = target: Tyrosine-protein kinase BTK (Homo sapiens) (UniProt Q06187); assay: Inhibition of BTK (unknown origin) at 1 uM by selectscreen kinase profiling assay in presence of ATP
Sequence of Tyrosine-protein kinase BTK (Homo sapiens) (Q06187 whole entry): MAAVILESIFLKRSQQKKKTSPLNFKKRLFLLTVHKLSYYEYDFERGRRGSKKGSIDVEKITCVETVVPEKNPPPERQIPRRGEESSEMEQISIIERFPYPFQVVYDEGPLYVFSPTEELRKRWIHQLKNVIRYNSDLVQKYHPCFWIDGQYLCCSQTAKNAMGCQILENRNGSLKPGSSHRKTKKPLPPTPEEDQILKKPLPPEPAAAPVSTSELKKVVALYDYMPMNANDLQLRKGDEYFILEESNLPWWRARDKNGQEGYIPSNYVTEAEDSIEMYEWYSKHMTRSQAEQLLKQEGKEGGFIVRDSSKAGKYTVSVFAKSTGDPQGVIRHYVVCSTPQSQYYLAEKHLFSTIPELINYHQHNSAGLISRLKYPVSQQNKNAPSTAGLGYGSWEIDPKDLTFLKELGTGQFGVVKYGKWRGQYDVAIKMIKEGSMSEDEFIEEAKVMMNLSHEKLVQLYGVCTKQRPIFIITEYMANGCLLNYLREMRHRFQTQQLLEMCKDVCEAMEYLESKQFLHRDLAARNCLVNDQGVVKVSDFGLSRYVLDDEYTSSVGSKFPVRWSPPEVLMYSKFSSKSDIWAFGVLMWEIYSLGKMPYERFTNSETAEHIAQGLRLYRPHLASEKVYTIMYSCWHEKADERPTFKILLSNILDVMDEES

[10] = target: Tyrosine-protein kinase Lck (Homo sapiens) (UniProt P06239); assay: Inhibition of LCK (unknown origin) at 1 uM by selectscreen kinase profiling assay in presence of ATP
Sequence of Tyrosine-protein kinase Lck (Homo sapiens) (P06239 2-509 limits assumed): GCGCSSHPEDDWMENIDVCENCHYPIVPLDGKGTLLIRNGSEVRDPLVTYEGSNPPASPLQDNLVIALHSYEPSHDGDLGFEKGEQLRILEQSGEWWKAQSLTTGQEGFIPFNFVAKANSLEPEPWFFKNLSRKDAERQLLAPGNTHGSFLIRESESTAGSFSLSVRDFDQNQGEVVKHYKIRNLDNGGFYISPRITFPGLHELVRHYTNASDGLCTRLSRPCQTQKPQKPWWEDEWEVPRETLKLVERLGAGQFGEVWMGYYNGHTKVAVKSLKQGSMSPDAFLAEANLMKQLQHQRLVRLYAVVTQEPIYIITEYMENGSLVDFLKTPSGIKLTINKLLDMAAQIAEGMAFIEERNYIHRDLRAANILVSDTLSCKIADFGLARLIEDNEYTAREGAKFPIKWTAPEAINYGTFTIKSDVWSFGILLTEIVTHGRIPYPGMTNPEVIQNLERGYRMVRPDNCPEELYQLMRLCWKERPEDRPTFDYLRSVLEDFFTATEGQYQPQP

[11] = target: Dual specificity mitogen-activated protein kinase kinase 1 (Homo sapiens) (UniProt Q02750); assay: Inhibition of MEK1 (unknown origin) at 1 uM by selectscreen kinase profiling assay in presence of ATP
Sequence of Dual specificity mitogen-activated protein kinase kinase 1 (Homo sapiens) (Q02750 whole entry): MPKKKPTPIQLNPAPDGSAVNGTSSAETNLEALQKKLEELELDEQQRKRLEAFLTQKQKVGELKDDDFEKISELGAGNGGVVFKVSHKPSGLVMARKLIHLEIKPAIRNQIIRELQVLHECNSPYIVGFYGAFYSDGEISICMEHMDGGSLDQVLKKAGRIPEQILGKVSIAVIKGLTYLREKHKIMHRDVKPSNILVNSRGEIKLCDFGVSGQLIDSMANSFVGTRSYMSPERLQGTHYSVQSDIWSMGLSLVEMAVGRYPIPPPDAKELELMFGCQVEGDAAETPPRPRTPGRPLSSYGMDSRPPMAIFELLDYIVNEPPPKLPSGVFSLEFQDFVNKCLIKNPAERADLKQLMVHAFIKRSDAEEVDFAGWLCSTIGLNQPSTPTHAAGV

[12] = Cell cycle arrest in human GSC derived from ANGM-CSS cells assessed as accumulation at G2/M phase at 1 uM after 7 days by based fluorescent reagent based cell analysis (reference value: 23.5%); assay type: functional
[13] = Cell cycle arrest in human ANGM-CSS cells assessed as accumulation at G2/M phase at 1 uM after 7 days by based fluorescent reagent based cell analysis (reference value: 23.8%); assay type: functional
ASPC1 = assay: Cytotoxicity against human AsPC1 cells assessed as cell viability 10 uM after 72 hrs by cell counting analysis relative to control; assay type: functional
[14] = target: T1, Cyclin-dependent kinase 5/CDK5 activator 1 (Homo sapiens); assay: Inhibition of CDK5/p25 (unknown origin) at 1 uM by selectscreen kinase profiling assay in presence of ATP; assay type: protein-complex assay
[15] = Antiproliferative activity against human ANGM-CSS cells assessed as inhibition of cell growth after 96 hrs by WST1 assay; assay type: functional
[16] = target: Cyclin-dependent kinase 1/cyclin B1 (Homo sapiens) (UniProt P06493+P14635); assay: Inhibition of CDK1/cyclin B (unknown origin) at 1 uM by selectscreen kinase profiling assay in presence of ATP; assay type: protein-complex assay
ANGM-CSS [17] = assay: Effect on human GSC morphology derived from ANGM-CSS cells assessed as reduction in area occupied by floating spheres at 1 uM after 7 days by microscopic analysis; assay type: functional, cell-based
[18] = Antiproliferative activity against human ANGM-CSS cells assessed as inhibition of cell growth after 144 hrs by WST1 assay; assay type: functional
[19] = Induction of apoptosis in human ANGM-CSS cells assessed as dead cells at 1 uM after 7 days by annexin V-FITC/7-AAD dual staining based cell analysis (reference value: 2.28%); assay type: functional
[20] = Induction of apoptosis in human GSC derived from ANGM-CSS cells assessed as dead cells at 1 uM after 7 days by annexin V-FITC/7-AAD dual staining based cell analysis (reference value: 2.33%); assay type: functional
[21] = target: Serine/threonine-protein kinase Chk1 (Homo sapiens) (UniProt O14757); assay: Inhibition of CHEK1 (unknown origin) at 1 uM by selectscreen kinase profiling assay in presence of ATP
[22] = target: Interleukin-1 receptor-associated kinase 4 (Homo sapiens) (UniProt Q9NWZ3); assay: Inhibition of IRAK4 (unknown origin) at 1 uM by selectscreen kinase profiling assay in presence of ATP
Sequence of Interleukin-1 receptor-associated kinase 4 (Homo sapiens) (Q9NWZ3 whole entry): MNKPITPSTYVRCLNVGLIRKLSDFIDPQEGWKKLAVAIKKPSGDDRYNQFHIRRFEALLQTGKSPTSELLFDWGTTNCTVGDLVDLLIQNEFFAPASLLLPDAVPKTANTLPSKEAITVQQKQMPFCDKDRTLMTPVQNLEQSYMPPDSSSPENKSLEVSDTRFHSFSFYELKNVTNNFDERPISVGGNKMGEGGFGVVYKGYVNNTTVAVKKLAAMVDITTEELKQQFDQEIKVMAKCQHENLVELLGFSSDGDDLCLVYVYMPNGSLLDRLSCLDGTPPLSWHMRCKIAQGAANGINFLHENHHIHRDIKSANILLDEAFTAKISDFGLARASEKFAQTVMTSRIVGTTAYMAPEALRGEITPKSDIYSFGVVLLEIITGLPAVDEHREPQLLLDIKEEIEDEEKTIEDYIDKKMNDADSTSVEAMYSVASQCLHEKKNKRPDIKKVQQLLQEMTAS

[23] = target: T2, 3-phosphoinositide-dependent protein kinase 1 (Homo sapiens, UniProt O15530); assay: Inhibition of PDK1 (unknown origin) in presence of 25 uM ATP incubated for 1 hr by Z'Lyte assay
T2 sequence (O15530 whole entry): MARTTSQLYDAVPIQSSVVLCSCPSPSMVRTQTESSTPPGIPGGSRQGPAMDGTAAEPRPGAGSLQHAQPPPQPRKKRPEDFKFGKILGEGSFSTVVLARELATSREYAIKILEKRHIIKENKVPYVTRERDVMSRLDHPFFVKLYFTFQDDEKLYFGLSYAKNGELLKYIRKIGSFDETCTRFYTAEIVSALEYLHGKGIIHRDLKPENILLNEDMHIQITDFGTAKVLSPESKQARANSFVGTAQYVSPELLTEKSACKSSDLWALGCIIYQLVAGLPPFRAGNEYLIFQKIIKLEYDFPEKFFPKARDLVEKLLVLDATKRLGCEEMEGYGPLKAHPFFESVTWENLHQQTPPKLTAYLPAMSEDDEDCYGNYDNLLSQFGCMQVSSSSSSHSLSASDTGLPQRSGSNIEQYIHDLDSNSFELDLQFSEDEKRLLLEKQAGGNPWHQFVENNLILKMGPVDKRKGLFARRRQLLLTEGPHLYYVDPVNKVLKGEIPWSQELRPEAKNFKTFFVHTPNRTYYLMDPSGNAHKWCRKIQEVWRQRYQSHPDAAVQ

[24] = target: Aurora kinase A (Homo sapiens) (UniProt O14965); assay: Inhibition of AURKA (unknown origin) at 1 uM by selectscreen kinase profiling assay in presence of ATP
[25] = target: cAMP-dependent protein kinase catalytic subunit alpha (Homo sapiens) (UniProt P17612); assay: Inhibition of PRKACA (unknown origin) at 1 uM by selectscreen kinase profiling assay in presence of ATP
[26] = target: Ribosomal protein S6 kinase beta-1 (Homo sapiens) (UniProt P23443); assay: Inhibition of RPS6KB1 (unknown origin) at 1 uM by selectscreen kinase profiling assay in presence of ATP
Sequence of Ribosomal protein S6 kinase beta-1 (Homo sapiens) (P23443 whole entry, looked up): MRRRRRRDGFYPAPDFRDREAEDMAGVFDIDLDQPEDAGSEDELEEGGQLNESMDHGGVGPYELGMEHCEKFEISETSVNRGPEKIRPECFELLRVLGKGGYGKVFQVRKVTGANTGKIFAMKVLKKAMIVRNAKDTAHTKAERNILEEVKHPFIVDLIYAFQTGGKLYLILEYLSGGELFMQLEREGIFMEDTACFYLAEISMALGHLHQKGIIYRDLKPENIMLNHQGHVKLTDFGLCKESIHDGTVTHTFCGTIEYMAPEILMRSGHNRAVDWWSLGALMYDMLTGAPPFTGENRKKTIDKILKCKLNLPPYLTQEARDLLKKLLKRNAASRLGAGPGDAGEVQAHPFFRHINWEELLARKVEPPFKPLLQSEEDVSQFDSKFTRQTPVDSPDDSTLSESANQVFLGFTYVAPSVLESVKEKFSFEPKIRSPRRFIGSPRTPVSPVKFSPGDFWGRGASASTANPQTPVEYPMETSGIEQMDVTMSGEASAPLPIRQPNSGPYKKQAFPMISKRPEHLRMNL

[27] = Antiproliferative activity against human U118MG cells assessed as inhibition of cell growth after 144 hrs by WST1 assay; assay type: functional; conditions: U-118-MG
[28] = target: Phosphatidylinositol 4-kinase beta (Homo sapiens) (UniProt Q9UBF8); assay: Inhibition of PI4Kbeta (unknown origin) at 1 uM by selectscreen kinase profiling assay in presence of ATP
[29] = target: Ribosomal protein S6 kinase alpha-1 (Homo sapiens) (UniProt Q15418); assay: Inhibition of RSK1 (unknown origin) at 1 uM by selectscreen kinase profiling assay in presence of ATP
Sequence of Ribosomal protein S6 kinase alpha-1 (Homo sapiens) (Q15418 whole entry): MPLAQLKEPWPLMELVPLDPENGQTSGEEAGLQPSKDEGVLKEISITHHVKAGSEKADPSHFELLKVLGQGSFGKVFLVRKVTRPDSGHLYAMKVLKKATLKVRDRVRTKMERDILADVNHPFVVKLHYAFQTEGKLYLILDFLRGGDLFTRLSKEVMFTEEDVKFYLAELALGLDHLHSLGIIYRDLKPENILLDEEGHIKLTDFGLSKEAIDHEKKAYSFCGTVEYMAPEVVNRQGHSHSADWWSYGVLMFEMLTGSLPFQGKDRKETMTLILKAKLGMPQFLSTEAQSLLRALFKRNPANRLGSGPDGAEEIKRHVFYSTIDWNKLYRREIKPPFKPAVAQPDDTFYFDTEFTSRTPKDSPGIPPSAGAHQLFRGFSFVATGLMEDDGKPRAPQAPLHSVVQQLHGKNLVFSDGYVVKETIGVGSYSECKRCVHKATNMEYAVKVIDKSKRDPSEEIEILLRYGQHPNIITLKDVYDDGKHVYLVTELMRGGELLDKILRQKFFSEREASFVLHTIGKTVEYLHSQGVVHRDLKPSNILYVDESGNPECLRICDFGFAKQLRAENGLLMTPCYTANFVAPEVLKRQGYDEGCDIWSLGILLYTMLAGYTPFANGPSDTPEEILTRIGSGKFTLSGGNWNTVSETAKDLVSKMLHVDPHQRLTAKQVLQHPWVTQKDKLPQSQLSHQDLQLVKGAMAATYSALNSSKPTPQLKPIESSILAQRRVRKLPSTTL

SMILES: COc1cc2c(cc1OC)CN(CC(=O)Nc1ccc3c(c1)/C(=C/c1cnc[nH]1)C(=O)N3)CC2
- inhibition (ANGM-CSS [1]): Dose-dependent effect
- inhibition [2]: 40%
- Activity (ANGM-CSS [3]): Active
- inhibition [4]: 28%
- IC50 [5]: 0.272 µM
- Activity [6]: 79.63%
- GI50 [7]: 14.6 µM
- Activity [8]: 11.87%
- inhibition [9]: 12%
- inhibition [10]: 26%
- inhibition [11]: 37%
- Activity [12]: 27%
- Activity [13]: 17.2%
- Activity (ASPC1): 68.14%
- inhibition [14]: 45%
- GI50 [15]: 7.5 µM
- inhibition [16]: 18%
- Activity (ANGM-CSS [17]): Active
- GI50 [18]: 3.98 µM
- Activity [19]: 1.74%
- Activity [20]: 1.1%
- inhibition [21]: 61%
- inhibition [22]: 5%
- IC50 [23]: 0.998 µM
- inhibition [24]: 37%
- inhibition [25]: 3%
- inhibition [26]: 18%
- GI50 [27]: 16.1 µM
- inhibition [28]: 5%
- inhibition [29]: 44%
